Structures can show the parent of a compound that is named as a salt. Where two headings read alike, the source gives them in different places.
Test system: progranulin
Test: Progranulin induction cellular assay (ELISA of secreted mouse PGRN)
Format: cell-based
Experimental: Cellular Assays: Progranulin induction assay. To measure the efficacy of compounds, a progranulin induction cellular assay in mouse primary microglia (pMG), primary cortical neurons, and BV-2 cell lines is used. BV-2 cells are split the day before plating into a 96 well plate format at approximately 80%. Cells should be plated the day before and allowed for 1 hour attachment period and for 16 hour incubation. Levels of progranulin secreted into the cell culture medium or retained in the cell lysate can be quantified using an ELISA-based readout and measurement of secreted mouse PGRN in the medium was assessed by the methodology published by Ghidoni et al. 2012. Standard ELISA kits to measure PGRN are available from vendors such as Adipogen, R&D, and Biovendor.
Table B below presents the results of a progranulin induction assay as described above.

[1] = progranulin induction assay, mouse pMG, primary cortical neurons and BV-2 cell lines named, cell type not given, ELISA-based readout, read-out: EC50

Structure (SMILES) | EC50 [1] [µM] | EC50 (Mus musculus, BV-2, read-out: EC50 μM) [µM]
N[C@H]1C[C@H](C(=O)N2CCc3ccccc3[C@@H]2c2ccc(F)cc2)OC[C@@H]1OC1CC1 [Compound 5530, ((2R,4S,5R)-4-amino-5-cyclopropoxytetrahydro-2H-pyran-2-yl)((S)-1-(4-fluorophenyl)-3,4-dihydroisoquinolin-2(1H)-yl)methanone] | 0.0003 | –
NC[C@@]1(O)CC[C@@H](C(=O)N2CCc3ccccc3[C@@H]2c2ccc(F)cc2)OC1 (single isomer, unassigned) [Compound 5047] | 0.086 | –
O=C([C@H]1C[C@@H]2NCCO[C@@H]2CO1)N1CCc2ccccc2[C@@H]1c1ccc(F)cc1 [Compound 5448, ((S)-1-(4-fluorophenyl)-3,4-dihydroisoquinolin-2(1H)-yl)((4aS,7R,8aS)-octahydropyrano[3,4-b][1,4]oxazin-7-yl)methanone] | 0.044 | –
O=C([C@@H]1CNCCCO1)N1CCc2ccccc2[C@@H]1c1ccc(F)cc1 (single isomer, unassigned) [Compound 5091] | 0.408 | –
N[C@H]1C[C@H](C(=O)N2CCc3ccccc3[C@@H]2c2ccc(F)cc2)OC[C@@H]1CO [Compound 5537, ((2R,4S,5S)-4-amino-5-(hydroxymethyl)tetrahydro-2H-pyran-2-yl)((S)-1-(4-fluorophenyl)-3,4-dihydroisoquinolin-2(1H)-yl)methanone] | 0.029 | –
CN1CCN[C@H]2C[C@H](C(=O)N3CCc4ccccc4[C@@H]3c3ccc(F)cc3)OC[C@@H]21 [Compound 5462, ((S)-1-(4-fluorophenyl)-3,4-dihydroisoquinolin-2(1H)-yl)((4aR,7R,8aS)-4-methyloctahydro-2H-pyrano[3,4-b]pyrazin-7-yl)methanone] | 0.003 | –
N[C@H]1CC[C@@H](C(=O)N2CCc3ccccc3[C@@H]2c2ccc(F)cc2)OC1 (single isomer, unassigned) [Compound 5016] | 0.199 | –
O=C([C@H]1OCCNC[C@@H]1O)N1CCc2ccccc2[C@@H]1c1ccc(F)cc1 [Compound 5244] | 0.091 | –
N[C@@H]1C[C@@H](C(=O)N2CCc3ccccc3[C@@H]2c2ccc(F)cc2)OC[C@H]1O [Compound 5068, ((2S,4R,5S)-4-amino-5-hydroxytetrahydro-2H-pyran-2-yl)((S)-1-(4-fluorophenyl)-3,4-dihydroisoquinolin-2(1H)-yl)methanone] | 0.376 | –
NCC1(O)COC(C(=O)N2CCc3ccccc3[C@@H]2c2ccc(F)cc2)C1 (single isomer, unassigned) [Compound 5007] | 0.14 | –
N[C@H]1C[C@H](C(=O)N2CCc3ccccc3[C@@H]2c2ccc(F)cc2)OC[C@H]1O [Compound 5051, ((2R,4S,5S)-4-amino-5-hydroxytetrahydro-2H-pyran-2-yl)((S)-1-(4-fluorophenyl)-3,4-dihydroisoquinolin-2(1H)-yl)methanone] | 0.006 | –
CC[S@+2]([O-])([N-]C)[C@H]1CO[C@@H](C(=O)N2CCc3ccccc3[C@@H]2c2ccc(F)cc2)C[C@@H]1N (single isomer, unassigned) [Compound 5551] | 0.027 | –
N[C@H]1COC(C(=O)N2CCc3ccccc3[C@@H]2c2ccc(F)cc2)C1 (stereo in doubt) [Compound 5010, ((2S,4R)-4-aminotetrahydrofuran-2-yl)((S)-1-(4-fluorophenyl)-3,4-dihydroisoquinolin-2(1H)-yl)methanone] | 0.573 | –
N[C@H]1CO[C@@H](C(=O)N2CCc3ccccc3[C@@H]2c2ccc(F)cc2)C[C@H]1O [Compound 5065, ((2R,4R,5S)-5-amino-4-hydroxytetrahydro-2H-pyran-2-yl)((S)-1-(4-fluorophenyl)-3,4-dihydroisoquinolin-2(1H)-yl)methanone] | 0.324 | –
COCCN[C@@H]1CC[C@H](C(=O)N2CCc3ccccc3[C@@H]2c2ccc(F)cc2)OC1 [Compound 5212, ((S)-1-(4-fluorophenyl)-3,4-dihydroisoquinolin-2(1H)-yl)((2R,5R)-5-((2-methoxyethyl)amino)tetrahydro-2H-pyran-2-yl)methanone] | 0.314 | –
N[C@H]1CO[C@@H](C(=O)N2CCc3ccccc3[C@@H]2c2ccc(F)cc2)C[C@H]1F [Compound 5075, ((2R,4R,5S)-5-amino-4-fluorotetrahydro-2H-pyran-2-yl)((S)-1-(4-fluorophenyl)-3,4-dihydroisoquinolin-2(1H)-yl)methanone] | 0.529 | –
O=C([C@@H]1CC[C@H](NCCO)CO1)N1CCc2ccccc2[C@@H]1c1ccc(F)cc1 [Compound 5033, ((S)-1-(4-fluorophenyl)-3,4-dihydroisoquinolin-2(1H)-yl)((2S,5S)-5-((2-hydroxyethyl)amino)tetrahydro-2H-pyran-2-yl)methanone] | 0.163 | –

Structure (SMILES) | EC50 [1] [µM] | EC50 (Mus musculus, BV-2, read-out: EC50 μM) [µM]
CO[C@@H]1CO[C@@H](C(=O)N2CCc3ccccc3[C@@H]2c2ccc(F)cc2)C[C@H]1N [Compound 5247, ((2R,4R,5S)-4-amino-5-methoxytetrahydro-2H-pyran-2-yl)((S)-1-(4-fluorophenyl)-3,4-dihydroisoquinolin-2(1H)-yl)methanone] | 0.095 | –
CCNC[C@]1(O)CO[C@@H](C(=O)N2CCc3ccccc3[C@@H]2c2ccc(F)cc2)C1 [Compound 5036, ((2R,4S)-4-((ethylamino)methyl)-4-hydroxytetrahydrofuran-2-yl)((S)-1-(4-fluorophenyl)-3,4-dihydroisoquinolin-2(1H)-yl)methanone] | 0.356 | –
CN1C=N[C@H]2C[C@H](C(=O)N3CCc4ccccc4[C@@H]3c3ccc(F)cc3)OC[C@H]21 [Compound 5528, ((S)-1-(4-fluorophenyl)-3,4-dihydroisoquinolin-2(1H)-yl)((3aS,6R,7aS)-3-methyl-3,3a,4,6,7,7a-hexahydropyrano[3,4-d]imidazol-6-yl)methanone hydrochloride] | 0.168 | –
O=C([C@H]1C[C@@H]2NC=N[C@@H]2CO1)N1CCc2ccccc2[C@@H]1c1ccc(F)cc1 [Compound 5430, ((S)-1-(4-fluorophenyl)-3,4-dihydroisoquinolin-2(1H)-yl)((3aS,6R,7aS)-1,3a,4,6,7,7a-hexahydropyrano[3,4-d]imidazol-6-yl)methanone] | > 0.3 | –
CCCN[C@H]1C[C@H](C(=O)N2CCc3ccccc3[C@@H]2c2ccc(F)cc2)OC[C@@H]1OC [Compound 5579] | 0.05 | –
N[C@@H]1CO[C@@H](C(=O)N2CCc3ccccc3[C@@H]2c2ccc(F)cc2)C[C@H]1O [Compound 5057, ((2R,4R,5R)-5-amino-4-hydroxytetrahydro-2H-pyran-2-yl)((S)-1-(4-fluorophenyl)-3,4-dihydroisoquinolin-2(1H)-yl)methanone] | 0.133 | –
CO[C@@H]1CO[C@@H](C(=O)N2CCc3ccccc3[C@@H]2c2ccc(F)cc2)C[C@@H]1N [Compound 5062, ((2R,4S,5S)-4-amino-5-methoxytetrahydro-2H-pyran-2-yl)((S)-1-(4-fluorophenyl)-3,4-dihydroisoquinolin-2(1H)-yl)methanone] | 0.049 | –
CCC(=O)N(C)[C@H]1CO[C@@H](C(=O)N2CCc3ccccc3[C@@H]2c2ccc(F)cc2)C[C@@H]1N [Compound 5517, N-((3R,4S,6R)-4-amino-6-((S)-1-(4-fluorophenyl)-1,2,3,4-tetrahydroisoquinoline-2-carbonyl)tetrahydro-2H-pyran-3-yl)-N-methylpropionamide] | 0.012 | –
N[C@H]1CO[C@H](C(=O)N2CCc3ccccc3[C@@H]2c2ccc(F)cc2)OC1 [Compound 5048, (trans-5-amino-1,3-dioxan-2-yl)((S)-1-(4-fluorophenyl)-3,4-dihydroisoquinolin-2(1H)-yl)methanone] | 0.575 | –
O=C([C@@H]1C[C@@H](NCCO)CO1)N1CCc2ccccc2[C@@H]1c1ccc(F)cc1 (single isomer, unassigned) [Compound 5066] | 0.948 | –
COC[C@@]1(N)CC[C@H](C(=O)N2CCc3ccccc3[C@@H]2c2ccc(F)cc2)OC1 [Compound 5220, ((2R,5S)-5-amino-5-(methoxymethyl)tetrahydro-2H-pyran-2-yl)((S)-1-(4-fluorophenyl)-3,4-dihydroisoquinolin-2(1H)-yl)methanone] | – | 0.081
CCN1C(=O)CN[C@H]2C[C@H](C(=O)N3CCc4ccccc4[C@@H]3c3ccc(F)cc3)OC[C@@H]21 [Compound 5536, (4aR,7R,8aS)-4-ethyl-7-((S)-1-(4-fluorophenyl)-1,2,3,4-tetrahydroisoquinoline-2-carbonyl)hexahydro-2H-pyrano[3,4-b]pyrazin-3(4H)-one] | 0.15 | –
C[C@H]1C[C@@H](C(=O)N2CCc3ccccc3[C@@H]2c2ccc(F)cc2)OC[C@@H]1N [Compound 5076, ((2S,4S,5R)-5-amino-4-methyltetrahydro-2H-pyran-2-yl)((S)-1-(4-fluorophenyl)-3,4-dihydroisoquinolin-2(1H)-yl)methanone] | 0.321 | –
CO[C@H]1CO[C@@H](C(=O)N2CCc3ccccc3[C@@H]2c2ccc(F)cc2)C[C@@H]1N [Compound 5077, ((2R,4S,5R)-4-amino-5-methoxytetrahydro-2H-pyran-2-yl)((S)-1-(4-fluorophenyl)-3,4-dihydroisoquinolin-2(1H)-yl)methanone] | 0.003 | –
Cn1cnc2c1CO[C@@H](C(=O)N1CCc3ccccc3[C@@H]1c1ccc(F)cc1)C2 [Compound 5529, ((S)-1-(4-fluorophenyl)-3,4-dihydroisoquinolin-2(1H)-yl)((R)-3-methyl-3,4,6,7-tetrahydropyrano[3,4-d]imidazol-6-yl)methanone] | 1.56 | –
NC[C@@H]1CC[C@@H](C(=O)N2CCc3ccccc3[C@@H]2c2ccc(F)cc2)O1 [Compound 5003, ((2S,5S)-5-(aminomethyl)tetrahydrofuran-2-yl)((S)-1-(4-fluorophenyl)-3,4-dihydroisoquinolin-2(1H)-yl)methanone] | 0.509 | –

Reference: patent US20230406843A1, “Progranulin Modulators and Methods of Using the Same” (ARKUDA THERAPEUTICS, priority 2020, published 2023)
